Counter-ions that a name gives are not always drawn. Bounds are passed on as bounds.

For the molecule `CCCc1nc2c(N)nc3cc(OCCCCCCNC(C)=O)ccc3c2n1CCCCNS(C)(=O)=O` [Example 48, N-(6-{4-Amino-1-[4-(methanesulfonylamino)butyl]-2-propyl-1H-imidazo[4,5-c]quinolin-7-yloxy}hexyl)acetamide], the melting point is 168 to 172 °C.

In turn, `CCCc1nc2c(N)nc3cc(OCCCN)ccc3c2n1CC(C)C` [Example 8, 7-(3-Aminopropoxy)-1-(2-methylpropyl)-2-propyl-1H-imidazo[4,5-c]quinolin-4-amine] displayed a melting point of 173 to 174 °C.

In turn, `CCCn1c(COCC)nc2c(N)nc3cc(OCCN4CCOCC4)ccc3c21` [Example 649, 2-(Ethoxymethyl)-7-(2-morpholin-4-ylethoxy)-1-propyl-1H-imidazo[4,5-c]quinolin-4-amine] yielded a melting point of 191 to 192 °C.

For the molecule `CCCn1c(COCC)nc2c(N)nc3ccc(OCCN)cc3c21` [Example 2, 8-(2-Aminoethoxy)-2-ethoxymethyl-1-propyl-1H-imidazo[4,5-c]quinolin-4-amine], the melting point was 157 to 159 °C.

Regarding `CCc1nc2c(N)nc3cc(OCC(=O)C(C)(C)C)ccc3c2n1CCOc1ccccc1` [Example 52, 1-[4-Amino-2-ethyl-1-(2-phenoxyethyl)-1H-imidazo[4,5-c]quinolin-7-yloxy]-3,3-dimethylbutan-2-one], the melting point is 238 to 239 °C (dec.).

With `CCCCc1nc2c(N)nc3ccc(OCCC4CCN(C(=O)C(C)C)CC4)cc3c2n1C` [Example 39, 1-{4-[2-(4-Amino-2-butyl-1-methyl-1H-imidazo[4,5-c]quinolin-8-yloxy)ethyl]piperidin-1-yl}-2-methylpropan-1-one], the melting point was 189.4 to 192.6 °C.

`CCCn1c(COCC)nc2c(N)nc3ccc(OCC(=O)N4CCS(=O)(=O)CC4)cc3c21` [Example 565, 8-[2-(1,1-Dioxidothiomorpholin-4-yl)-2-oxoethoxy]-2-(ethoxymethyl)-1-propyl-1H-imidazo[4,5-c]quinolin-4-amine] returned a melting point of 223 to 225 °C.

Turning to `CCCn1c(CCOC)nc2c(N)nc3cc(OCCCN)ccc3c21` [Example 394, 7-(3-Aminopropoxy)-2-(2-methoxyethyl)-1-propyl-1H-imidazo[4,5-c]quinolin-4-amine], the melting point lay within 165 to 166.5 °C.

In turn, `CCOCc1nc2c(N)nc3cc(OCC(=O)N4CCOCC4)ccc3c2n1CC(C)(C)O` [Example 646, 1-[4-Amino-2-(ethoxymethyl)-7-(2-morpholin-4-yl-2-oxoethoxy)-1H-imidazo[4,5-c]quinolin-1-yl]-2-methylpropan-2-ol] yielded a melting point of 209 to 211 °C.

In the case of `CCOCc1nc2c(N)nc3cc(OC4CCN(C(C)=O)CC4)ccc3c2n1CC(C)(C)O` [Example 656, 1-[7-[(1-Acetylpiperidin-4-yl)oxy]-4-amino-2-(ethoxymethyl)-1H-imidazo[4,5-c]quinolin-1-yl]-2-methylpropan-2-ol], the melting point lay within 162 to 164 °C.

`CCCn1c(COCC)nc2c(N)nc3ccc(OCCNC(=O)C(C)C)cc3c21` (as salt: hydrochloride) [Example 5, N-(2-{[4-Amino-2-(ethoxymethyl)-1-propyl-1H-imidazo[4,5-c]quinolin-8-yl]oxy}ethyl)-2-methylpropanamide hydrochloride] returned a melting point of 240 to 242 °C.

The molecule `CCOCc1nc2c(N)nc3cc(OCCCN4CCCC4=O)ccc3c2n1CCCCNS(C)(=O)=O` [Example 400, N-(4-{4-Amino-2-(ethoxymethyl)-7-[3-(2-oxopyrrolidin-1-yl)propoxy]-1H-imidazo[4,5-c]quinolin-1-yl}butyl)methanesulfonamide] showed a melting point of 157 °C.

Take `CCOCc1nc2c(N)nc3cc(OCCCN4CCCC4=O)ccc3c2n1CCCCN` (as salt: hydrochloride) [Example 398, 1-(3-{[4-Amino-1-(4-aminobutyl)-2-(ethoxymethyl)-1H-imidazo[4,5-c]quinolin-7-yl]oxy}propyl)pyrrolidin-2-one dihydrochloride]: the melting point was above 250 °C.

`CCc1nc2c(N)nc3cc(OS(C)(=O)=O)ccc3c2n1CCOc1ccccc1` (as salt: methanesulfonate) [Example 367, 4-Amino-2-ethyl-1-(2-phenoxyethyl)-1H-imidazo[4,5-c]quinolin-7-yl methanesulfonate] came in with a melting point of 213 to 214.5 °C.

The molecule `CCOCc1nc2c(N)nc3cc(OC4CCOC4)ccc3c2n1CCCCN1CCCS1(=O)=O` (centres unmarked) [Example 401, 1-[4-(1,1-Dioxidoisothiazolidin-2-yl)butyl]-2-(ethoxymethyl)-7-(tetrahydrofuran-3-yloxy)-1H-imidazo[4,5-c]quinolin-4-amine] returned a melting point of 195.5 to 197 °C.

As to `CCCn1c(COCC)nc2c(N)nc3ccc(OCCCN4CCCC4=O)cc3c21` [Example 405, 1-(3-{[4-Amino-2-(ethoxymethyl)-1-propyl-1H-imidazo[4,5-c]quinolin-8-yl]oxy}propyl)pyrrolidin-2-one], the melting point fell in the range of 188.5 to 190 °C.

`CCOCc1nc2c(N)nc3cc(OCCCN4CCCC4=O)ccc3c2n1CCCCNC(=O)OC(C)(C)C` [Example 397, tert-Butyl 4-{4-amino-2-(ethoxymethyl)-7-[3-(2-oxopyrrolidin-1-yl)propoxy]-1H-imidazo[4,5-c]quinolin-1-yl}butylcarbamate] showed a melting point of 134.5 to 136 °C.

On to `CCCn1c(COCC)nc2c(N)nc3ccc(OCC(=O)N4CCOCC4)cc3c21` [Example 566, 2-(Ethoxymethyl)-8-(2-morpholin-4-yl-2-oxoethoxy)-1-propyl-1H-imidazo[4,5-c]quinolin-4-amine], for which the melting point was in the range of 196 to 197 °C.

In turn, `Cc1nc2c(N)nc3cc(OCCC4CCN(C(=O)C5CCCC5)CC4)ccc3c2n1CC(C)C` [Example 27, 7-{2-[1-(Cyclopentylcarbonyl)piperidin-4-yl]ethoxy}-2-methyl-1-(2-methylpropyl)-1H-imidazo[4,5-c]quinolin-4-amine] displayed a melting point of 235.7 to 238.1 °C.

Turning to `CCc1nc2c(N)nc3cc(OCCN)ccc3c2n1CC1CCOCC1` [Example 650, 7-(2-Aminoethoxy)-2-ethyl-1-(tetrahydro-2H-pyran-4-ylmethyl)-1H-imidazo[4,5-c]quinolin-4-amine], the melting point was 238 °C (dec.).

For the origin of these results see patent publication US9856254B2, “Alkoxy substituted imidazoquinolines” (3M INNOVATIVE PROPERTIES COMPANY, priority 2003, dated 2018).
